Test results reported in patent EP0434750B1 (priority 1988, dated 1990).
Several values for one entry are separate records, joined by “and”; a condition that tells them apart may be missing. Equal entries are not always repeated. Where two headings read alike, the source gives them in different places.

Experiments:
[1] = test system: monkeys (Macaca fascicularis); assay: Neurological examination of MPTP-treated monkeys with or without chloroquine pretreatment; format: in vivo; conditions: for Neurological Status: Reflexes / Neurological Status: Tone: control score 2; for Neurological Status: Spontaneous Movement: control score 10; for Neurological Status: Total (x 5.26): control 100; for Neurological Status: Tremor: control score 5
Text: Four animals are naive controls. […] TABLE 3

[2] = test system: monkeys (Macaca fascicularis); assay: Dopamine and homovanillic acid levels in monkey brain samples (HPLC); format: in vivo; conditions: short-term chloroquine and MPTP; monkeys S1-3
[3] = test system: Tyrosine hydroxylase (TH); assay: Tyrosine hydroxylase activity in monkey brain homogenate (tritium release method); format: in vivo, Macaca fascicularis; conditions: short-term chloroquine and MPTP; monkeys S1-3
Procedure: (§5) Thirteen male monkeys (Macaca fascicularis) 5 to 8 years old, weighing 3.5 to 4.8 kg, are studied. […] Nine receive daily (0.35 mg per kg) injections of MPTP i.v. for four days. Three animals (M1-3) who received no chloroquine are the untreated controls. Six animals are pretreated with chioroquine (4 mg per kg) intramuscularly; three (S1-3) are pretreated for 12 days, and three (L1-3) for 24 days. All six pretreated animals continue to receive chloroquine injections during MPTP administration and for 10 days following MPTP exposure.
Detection is done electrochemically on a glassy carbon electrode (Bioanalytical Systems Inc.) at an applied voltage of 0.65 V. Plasma levels of chloroquine are determined by HPLC with UV detection. Samples are deproteinated with 0.2 vol. of 25% trichloroacetic acid followed by centrifugation at 4°C for 30 minutes at 1,000 g. Supernatants are removed, lyophilized overnight and reconstituted with 80 µl of 0.1 M perchloric acid. Samples are analyzed directly using reverse-phase HPLC with a Whatman ODS-3 column (Whatman) and Pellosil C8 guard column (Alltech). The mobile phase for this system is 40% acetonitrile, 0.1 M sodium phosphate (pH 3.0) with 75 mM perchloric acid. Absorption is detected at 343 nm (Bergqvist, Y. et al., Chromat. 221, 2503 (1985)). Tyrosine hydroxylase (TH) activity is assayed by the tritium release method of Nagatsu, T. et al., Analyt. […] Supernatant fluid (50 µl) from brain homogenate (1 g tissue in 20 vol 50 mM Tris, H 7.4) are added to 7 ml glass scintillation vials containing 5 µl 6 DL-6-methyl-5,6,7,8-tetrahydropterine (2.8 mg ml^-1), 5 µl FeSO4 (2.78 mg ml ^-1) and 1 µC of ring labelled [^3H]tyrosine. Mixtures are incubated 30 minutes at 37°C and the reaction terminated by adding 50 µl 3 M Na2CO3, pH 11.6. Toluene/isoamyl alcohol scintillant (5 ml) is then added directly to the vial and the contents mixed for 10 seconds. The aqueous and organic phases are allowed to separate and the ^3H2O extracted into the organic phase determined.

[4] = cynomolgus monkey, in vivo
Procedure: as §5
Detection is done electrochemically on a glassy carbon electrode (Bioanalytical Systems Inc.) at an applied voltage of 0.65 V. Plasma levels of chloroquine are determined by HPLC with UV detection. Samples are deproteinated with 0.2 vol. of 25% trichloroacetic acid followed by centrifugation at 4°C for 30 minutes at 1,000 g. Supernatants are removed, lyophilized overnight and reconstituted with 80 µl of 0.1 M perchloric acid. Samples are analyzed directly using reverse-phase HPLC with a Whatman ODS-3 column (Whatman) and Pellosil C8 guard column (Alltech). […] Absorption is detected at 343 nm (Bergqvist, Y. et al., Chromat. 221, 2503 (1985)). […] The aqueous and organic phases are allowed to separate and the ^3H2O extracted into the organic phase determined.

[5] = Binding of MPTP to beef eye melanin (Scatchard analysis)
Procedure: Melanin from beef eyes is prepared according to Potts, A.M., Ophthalmol. 3, 405 (1964). The pigment is finally suspended in distilled water to a concentration of 10 mg (by dry weight) per ml suspension.
(§1) The reaction mixtures are incubated at room temperature for one hour. Reference samples contain distilled water instead of melanin.
(§2) From the obtained data, the classes of binding sites, association constants and the binding capacity of the melanins are estimated according to Scatchard, G. et al., J. Am. Chem. Soc. 79, 12 (1957). As the molecular weight of melanin is unknown, the value for the number of binding sites is expressed as mol per mg melanin. The calculations are based on a melanin content of 2.5 mg per incubation.

[6] = Binding of MPTP to synthetic dopamine melanin (Scatchard analysis)
Procedure: Synthetic dopamine melanin is prepared by autooxidation (Lyden et al., supra). The dopamine melanin suspension (in distilled water) is adjusted to contain 5 mg melanin per ml. Both pigment suspensions are stored at 2°C.
as §1, §2

C57 black mice [7] = assay: Striatal DA, DOPAC and HVA content in mice after MPTP; format: in vivo
Procedure: Male C57BL/6J IMR mice 6-8 weeks of age are used throughout except in one experiment (see below) in which CB6F1 [(BALB/cByJ IMR x C57BL/gJ IMR)F1] mice of a similar age are used. Mice are housed five per cage in plexiglass cages with free access to food and water in a colony room maintained at 23 ± 1°C. Fluorescent lighting in the room is automatically turned on at 06.00 hours and off at 18.00 hours.
(§3) All other studies are performed in C57 black mice.
The mouse striatum is obtained by placing the brain on its dorsal surface and making two coronal cuts; the first at the caudal end of the olfactory bulbs, the second at the level of the optic chiasma. After placing the resulting brain slice on its rostral surface, one horizontal cut is made just below the corpus callosum and another just above the anterior commissure. Remaining parietotemporal cortex is trimmed away using the external capsule as a landmark. Septal tissue lying between the caudate nuclei is removed by cutting along the tissue planes created by the frontal horns of the lateral ventricles. Striatal tissue thus isolated weighs approximately 20 mg per animal. Immediately after dissection, tissue is wrapped in aluminum foil and stored in liquid nitrogen until assay, with the exception of tissue for uptake studies which is used immediately.
The striatum is weighed, placed in a tube containing 1 ml of 0.4 normal perchloric acid, then homogenized with a Beckman polytron at a setting of 5 for 10 seconds. The homogenate is centrifuged at approximately 20,000 x g for 15 minutes. Concentrations of dopamine (DA), DOPAC and HVA in the supernatant are determined by reverse-phase liquid chromatography coupled with electrochemical detection according to the method of Mayer, G.S. et al., J. Chromatogr. 255, 533 (1983), with minor modifications. The mobile phase is prepared by mixing 965 ml of 0.15 M monochloroacetic acid with 35 ml of acetonitrile and adding 193 mg of sodium octyl sulfate. This solution is filtered and degassed and then 18 ml of tetrahydrofuran are added. Using this mobile phase at a flow rate of 1.3 ml/min, DA, DOPAC and HVA are resolved using a 4.6 mm x 25 cm C-18, 5 µ column (Brownless Labs). Detection and quantitation are performed using a dual series electrode detector (Coulochem Model 5100, Environmental Systems Associates, Wiggins, Mass.). Electrode potentials are set at +0.4 V (electrode 1) and -0.3 V (electrode 2). The response on electrode 2 is monitored (10 mV strip chart recorder) and used for quantitation relative to peak heights of known amounts of standards.

[8] = test system: crude striatal synaptosomal suspensions; assay: In vitro accumulation of [3H]DA by crude striatal synaptosomal suspensions; format: biochemical, mice; conditions: for Km: read-out: Km(µm) of [^3H]DA uptake
Procedure: as §3
The in vitro accumulation of [^3H]DA by crude striatal synaptosomal suspensions is measured using the method of Snyder, S.H. et al., J.Pharmacol.Exp.Ther. 165, 78 (1968) with minor modifications. Briefly, crude synaptosomal suspensions are prepared by homogenizing striatal tissue in 50 vols. (w/v) of ice-cold 0.32 M sucrose, then centrifuging the homogenate for 10 minutes at 1,000 x g. […] After vortexing, tubes (except temperature blanks) are incubated in a waterbath at 37°C for five minutes, then returned to ice. Synaptosomes are harvested by filtration. Filters are rinsed twice with 5 ml aliquots of physiological saline. Radioactivity in the filters is quantified by liquid scintillation spectroscopy. Assays are performed in sextuplicate at each DA concentration, with half of the samples serving as blanks. Active uptake is defined as the difference between [^3H]DA (PM/mg tissue/5 min.) incubation at 37°C after correction for uptake at 0-4°C.

[9] = biological target: [^3H]mazindol binding site, striatal membranes (Mus musculus, UniProt Q61327); conditions: three weeks after MPTP 20 mg/kg/h x 4
Sequence of [^3H]mazindol binding site, striatal membranes (Q61327 whole entry): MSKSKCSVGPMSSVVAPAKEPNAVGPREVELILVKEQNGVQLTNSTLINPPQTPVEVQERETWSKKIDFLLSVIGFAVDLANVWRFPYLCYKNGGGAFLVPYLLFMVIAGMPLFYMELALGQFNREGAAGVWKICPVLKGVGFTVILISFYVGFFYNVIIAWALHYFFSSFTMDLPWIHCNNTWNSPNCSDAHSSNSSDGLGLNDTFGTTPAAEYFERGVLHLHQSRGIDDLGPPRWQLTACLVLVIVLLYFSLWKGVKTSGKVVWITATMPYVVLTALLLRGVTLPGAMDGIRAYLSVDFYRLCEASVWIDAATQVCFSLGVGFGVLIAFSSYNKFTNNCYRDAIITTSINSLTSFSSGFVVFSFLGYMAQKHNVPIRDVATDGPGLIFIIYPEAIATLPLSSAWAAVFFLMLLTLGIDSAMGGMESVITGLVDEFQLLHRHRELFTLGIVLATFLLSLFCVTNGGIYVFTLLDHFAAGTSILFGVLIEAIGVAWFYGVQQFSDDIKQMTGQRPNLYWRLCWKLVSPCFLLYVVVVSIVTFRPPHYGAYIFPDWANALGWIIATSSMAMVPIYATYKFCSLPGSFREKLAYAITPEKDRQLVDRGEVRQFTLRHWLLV
Procedure: This group is used only for anatomical studies looking for cell loss in the substantive nigra cells (SNc). All other studies are performed in C57 black mice.

[10] = Lethality of MPTP regimens in mice; format: in vivo; conditions: mouse, in vivo, ip
Procedure: as §3
(§4) Approximately 20% of the mice die after the 20 mg/kg/h x 4 regimen. […]

C57 black mice [11] = assay: Lethality of MPTP regimens in mice; format: in vivo; conditions: 2.5, 5 and 10 mg/kg/h x 4 MPTP regimens
Procedure: as §3, §4

C57 black mice [12] = assay: Silver degeneration study of striatal nerve terminals (Fink-Heimer); format: in vivo
Procedure: Nerve terminal degeneration studies are performed using the method of Fink, R.P. et al., Brain Research 4, 369 (1967) (Procedure 1). This method makes possible selective silver impregnation of degenerating nerve fibers and terminals. Mice for these studies are killed under sodium pentobarbital anesthesia (40 mg/kg) by transcardial perfusion with 10% formal saline. The brain is immediately removed and stored in perfusion fluid at 0-4°C for at least one week before being sectioned on a freezing microtomee. 30 µm coronal sections are collected in 5% formal saline, then stained with silver according to Fink et al., supra.
Some fine granular degeneration is also found in the nucleus accumbens and olfactory tubercle, but in these regions it was much less dense. No such degeneration is found in identically treated sections of control mice, or in other brain regions visible in coronal brain sections at the level of the striatum.

squirrel monkeys = assay: Treatment of MPTP-induced parkinsonism in squirrel monkeys; format: in vivo; conditions: i.p. MPTP, three dosage schedules (Groups A-C)
Procedure: Male squirrel monkeys (aged 2-3 years) are used for this study. […] All injections are intraperitoneal.
Three different dosage schedules of MPTP are used. Monkey Group A receives four doses, 2 mg/kg each, which are given at two-hour intervals. Monkey Group B is treated over a five-day period. On day 1, a single 2 mg/kg dose is given. On day 3, two injections of 2 mg/kg each are given, six hours apart. On day 5, a 3 mg/kg dose is given followed by a 0.5 mg/kg dose four hours later (total dose: 9.5 mg/kg). Three doses of 3 mg/kg each are given to Monkey Group C, spaced at six-day intervals. Monkey Group D serves as a control.
A similar response to the same treatment is observed on each of the next four days. Subsequently, the animal becomes less responsive to medication and is sacrificed on day 10. One monkey in Group B responds to Sinemet® (one-eighth of a 10/100 tablet) with full mobility on day 9. However, on subsequent days, […] becomes increasingly less responsive to medication, often appearing uncoordinated and shaky. This monkey is sacrificed on day 15. […] Three days later, this monkey becomes profoundly hypokinetic, develops slow respirations, and dies.
After increased bradykinesis and frequent nodding-off are observed in the monkeys, several monkeys of Groups A, B and C are administered melanin by injection into the cerebrospinal fluid at a dose of 50 mg/kg daily. […]

[13] = long-term chloroquine (24 days) plus MPTP, monkeys L1-3
[14] = short-term chloroquine (12 days) plus MPTP, monkeys S1-3
[15] = one week after MPTP 20 mg/kg/h x 4
[16] = three months after MPTP 20 mg/kg/h x 4

CCN(CC)CCCC(C)Nc1ccnc2cc(Cl)ccc12 (stereo not shown) [Chloroquine]
protection from MPTP-induced parkinsonian clinical symptoms ([1]; chloroquine 4 mg per kg i.m. pretreatment, 12 or 24 days): Five of the six monkeys | Neurological Status: Reflexes [1, 13]: 1 and 2 | Neurological Status: Tone [1, 13]: 1.5 and 1 and 2 | Neurological Status: Spontaneous Movement ([1]; short-term chloroquine 4 mg per kg i.m., pretreated 12 days, plus MPTP, monkeys S1-3): 3 | Neurological Status: Total (x 5.26) [1, 14]: 47 and 58 and 42 | Neurological Status: Reflexes [1, 14]: 1 and 2 | Neurological Status: Tone [1, 14]: 2 and 1 | Neurological Status: Tremor [1, 14]: 3 and 4 | CAUDATE HVA [2]: 8.0 nmol per g tissue and 10.5 nmol per g tissue and 9.2 nmol per g tissue | PUTAMEN HVA [2]: 10.1 nmol per g tissue and 8.6 nmol per g tissue and 9.8 nmol per g tissue | CAUDATE TH (% control) [3]: 14.0 % control and 18.7 % control and 22.6 % control | PUTAMEN TH (% control) [3]: 20.0 % control and 23.3 % control and 29.8 % control | Chloroquine level relative to that in other monkeys monitored [4]: * Chloroquine level is 36% of that in other monkeys monitored. | Chloroquine in plasma ([4]; im, 4 mg/kg): 300 ng ml^-

CN1CC=C(c2ccccc2)CC1 [MPTP, 1-Methyl-4-phenyl-1,2,5,6-tetrahydropyridine]
association constant K1 ([5]; MPTP 5.7 µM - […], room temperature, one hour, first class of binding sites, 60 min): K1 = 2.32 x 10^5 M^-1 | total binding capacity (Σn) ([5]; beef eye melanin): 0.53 µmol/mg melanin | number of binding sites n1 ([5]; first class of binding sites): n1 = 0.09 µ mole per mg melanin | number of binding sites n2 ([5]; second class of binding sites): n2 = 0.44 µ mole per mg melanin | association constant K2 ([5]; second class of binding sites, 60 min): K2 = 1.22 x 10^3 M^-1 | number of binding sites n1 ([6]; first class of binding sites): n1 = 0.08 µ mole per mg melanin | association constant K1 ([6]; first class of binding sites, 60 min): K1 = 5.82 x 10^5 M^-1 | association constant K2 ([6]; second (intermediary) class of binding sites, 60 min): K2 = 1.22 x 10^4 M^-1 | number of binding sites n2 ([6]; second class of binding sites): n2 = 0.05 µ mole per mg melanin | number of binding sites n3 ([6]; third class of binding sites): n3 = 0.14 µ mole per mg melanin | association constant K3 ([6]; third class of binding sites, 60 min): K3 = 7.68 x 10^2 M^-1 | Neurological Status: Spontaneous Movement ([1]; MPTP alone 0.35 mg per kg i.v. daily for four days, individual monkeys): 1 | Neurological Status: Total (x 5.26) ([1]; MPTP alone, individual monkeys): 16 and 29 and 8 | Neurological Status: Reflexes ([1]; MPTP alone, individual monkeys): 0.5 and 1.5 and 0 | Neurological Status: Tone ([1]; MPTP alone, individual monkeys): 0.5 (2×) and 2 | Neurological Status: Tremor ([1]; MPTP alone, individual monkeys): 1 (2×) and 0 | striatal DA level, % of control (C57 black mice [7]; 15 months after MPTP 20 mg/kg/h x 4): 69 % of control | striatal concentration of DOPAC (C57 black mice [7]; MPTP 20 mg/kg/h x 4, control 0.96 (±0.14)): 0.28 (±0.02) µg/g | striatal concentration of HVA (C57 black mice [7]; MPTP 20 mg/kg/h x 4, control 1.38 (±0.05)): 0.60 (±0.06) µg/g | DA (C57 black mice [7]; mouse striatum one week after MPTP 20 mg/kg/h x 4 i.p.): 2.8 ± 0.5 µg/g | DA (C57 black mice [7]; mouse striatum one week after MPTP 30 mg/kg/day x 10 i.p.): 3.5 ± 0.3 µg/g | % Depletion of striatal DA (C57 black mice [7]; [15]): 74% | HVA, % of control (C57 black mice [7]; [15]): 43 % of control | striatal DA level, % of control (C57 black mice [7]; [15]): 28 % of control | % Depletion of striatal DA (C57 black mice [7]; one week after MPTP 30 mg/kg/day x 10): 67% | HVA, % of control (C57 black mice [7]; [16]): 80 % of control | depletion of striated DA (C57 black mice [7]; [16]): 34% | HVA (C57 black mice [7]; three months after MPTP, control 1.36 ± 0.11): 1.09 ± 0.04 µg/g | DOPAC (C57 black mice [7]; three months after MPTP, controls 1.53 ±0.09 µg/g): 1.03 ± 0.03 µg\g | Vmax of [^3H]DA striatal uptake, % of control [8, 15]: 37 % of control | decrease of Vmax of striatal synaptosomal [^3H]DA uptake [8, 15]: 62% | Vmax of [^3H]DA uptake ([8]; one week after MPTP 20 mg/kg/h x 4, control 5540 ± 480): 2080 ± 305 cpm[^3H]DA/mg tissue/5 min | Km ([8]; striatal synaptosomes of mice one week after MPTP 20 mg/kg/h x 4): 0.12 ± 0.02 µM | Vmax of [^3H]DA striatal uptake, % of control [8, 16]: 79 % of control | Vmax of [^3H]DA striatal uptake ([8]; three months after MPTP, control 6238 (± 520)): 4928 (± 408) CPM [^3H]DA/mg tissue/5 min | reduction of Bmax of [^3H]mazindol binding sites [9]: 44% | Bmax of [^3H]mazindol binding ([9]; control 361): 201 pmol/g tissue | mortality ([10]; 20 mg/kg/h x 4 regimen, read-out: mice that die): ~20% | mortality ([10]; read-out: animals killed): > 50% | lethality (C57 black mice [11]): No lethality | fine granular argyrophilic debris in striata (C57 black mice [12]; MPTP 20 mg/kg/h x 4, killed one day later): Three of three mice | behavioural effect of MPTP (squirrel monkeys): profoundly akinetic

NCCc1ccc(O)c(O)c1 [[^3H]DA, dopamine]
Km ([8]; striatal synaptosomes of control mice): 0.14 ± 0.02 µM

C#CCN(C)Cc1ccccc1 [pargyline]
evidence of striatal terminal degeneration (C57 black mice [12]; pretreated with 25 mg/kg of pargyline, then MPTP 20 mg/kg/h x 4): None of three mice
